The data set can be described thus: Efficacy and toxicology studies (Table 9), intramuscular in rat. To be noted: mouse efficacy and rat toxicology studies; formulated in DV-140-F2.

On to `CCCCCCCCCCN(CC(N)=O)C(=O)CN(CCCCCCCCCC)C(=O)CN(CCCCCCCCCC)C(=O)CN(CCCCCCCCCC)C(=O)CNCCO` [Compound 140], for which the tolerability result is recorded as “well-tolerated”.

These data come from US20240307526A1, “COMPOSITIONS COMPRISING HYDROXYETHYL-CAPPED CATIONIC PEPTOIDS” (priority 2021, published 2024).
